# Laboratory results: ChEMBL document CHEMBL1138821, “Amino porphyrins as photoinhibitors of Gram-positive and -negative bacteria” (2004)
# How the values were obtained:
# Format in all cases: functional
# [1] = system: Staphylococcus aureus; assay: Minimal bacterial concentration against Staphylococcus aureus was evaluated
# [2] = system: Staphylococcus aureus; assay: Minimal inhibitory concentration against Staphylococcus aureus was evaluated
# [3] = system: Staphylococcus aureus; assay: Minimal inhibitory concentration against Staphylococcus aureus was evaluated; Range = 1.5-2 ug/mL
# [4] = system: Escherichia coli; assay: Minimal bacterial concentration against Escherichia coli was evaluated; Range = 2-2.5 ug/mL
# [5] = system: Staphylococcus aureus; assay: Minimal bacterial concentration against Staphylococcus aureus was evaluated; Range = 2-2.5 ug/mL
# [6] = system: Staphylococcus aureus; assay: Minimal inhibitory concentration against Staphylococcus aureus was evaluated; Range = 1.5-2.0 ug/mL
# [7] = system: Staphylococcus aureus; assay: Minimal inhibitory concentration against Staphylococcus aureus was evaluated; Range = 1-1.5 ug/mL
# [8] = system: Staphylococcus aureus; assay: Minimal inhibitory concentration against Staphylococcus aureus was evaluated; Range = 0.5-1.0 ug/mL
# [9] = system: Staphylococcus aureus; assay: Minimal bacterial concentration against Staphylococcus aureus was evaluated; Range = 1-1.5 ug/mL
# [10] = system: Staphylococcus aureus; assay: Minimal inhibitory concentration against Staphylococcus aureus was evaluated; Range = 0-0.5 ug/mL
# [11] = system: Escherichia coli; assay: Minimal bacterial concentration against Escherichia coli was evaluated; Range = 1.5-2.0 ug/mL
# [12] = system: Staphylococcus aureus; assay: Minimal bacterial concentration against Staphylococcus aureus was evaluated; Range = 1.0-1.5ug/mL
smiles,measurement,setting,value
Cc1ccc(C2c3ccc([nH]3)C(c3ccc(C)cc3)c3ccc([nH]3)C(c3ccccc3N)c3ccc([nH]3)C(c3ccc(C)cc3)c3ccc2[nH]3)cc1 (configuration not stated),MBC,[1],> 3 µg/mL
same,MIC,[2],> 2.5 µg/mL
C=CC1=C(C)/C2=C/c3[nH]c(c(C)c3C=C)/C=c3\[nH]/c(c(CCC(=O)NCCCCN(CCCN)CCCCN)c3C)=C\C3=NC(CC1=N2)C(C)=C3CCC(=O)NCCCCN(CCCN)CCCCN (configuration not stated),MIC,[3],2 µg/mL
same,MBC,[4],2.5 µg/mL
same,MBC,[5],2.5 µg/mL
Nc1ccc(C2c3ccc([nH]3)C(c3ccc(N)cc3)c3ccc([nH]3)C(c3ccccc3O[C@@H]3O[C@@H](CO)[C@@H](O)[C@H](O)[C@@H]3O)c3ccc([nH]3)C(c3ccc(N)cc3)c3ccc2[nH]3)cc1 (some centres not stated),MIC,[6],2 µg/mL
same,MBC,[1],> 1.5 µg/mL
Nc1ccc(C2c3ccc([nH]3)C(c3ccc(N)cc3)c3ccc([nH]3)C(c3ccc(O[C@@H]4O[C@@H](CO)[C@@H](O)[C@H](O)[C@@H]4O)cc3)c3ccc([nH]3)C(c3ccc(N)cc3)c3ccc2[nH]3)cc1 (some centres not stated),MIC,[7],1.5 µg/mL
same,MBC,[1],> 1.5 µg/mL
CC(N)C(=O)Nc1ccccc1C1c2ccc([nH]2)C(c2ccc(O[C@@H]3O[C@@H](CO)[C@@H](O)[C@H](O)[C@@H]3O)cc2)c2ccc([nH]2)C(c2ccc(O[C@@H]3O[C@@H](CO)[C@@H](O)[C@H](O)[C@@H]3O)cc2)c2ccc([nH]2)C(c2ccc(O[C@@H]3O[C@@H](CO)[C@@H](O)[C@H](O)[C@@H]3O)cc2)c2ccc1[nH]2 (some centres not stated),MIC,[6],2 µg/mL
same,MBC,[1],> 1.5 µg/mL
CC(N)C(=O)Nc1ccc(C2c3ccc([nH]3)C(c3ccc(O[C@@H]4O[C@@H](CO)[C@@H](O)[C@H](O)[C@@H]4O)cc3)c3ccc([nH]3)C(c3ccc(O[C@@H]4O[C@@H](CO)[C@@H](O)[C@H](O)[C@@H]4O)cc3)c3ccc([nH]3)C(c3ccc(O[C@@H]4O[C@@H](CO)[C@@H](O)[C@H](O)[C@@H]4O)cc3)c3ccc2[nH]3)cc1 (some centres not stated),MIC,[7],1.5 µg/mL
same,MBC,[1],> 1.5 µg/mL
CC(N)C(=O)Nc1ccc(C2c3ccc([nH]3)C(c3ccc(O[C@@H]4O[C@@H](CO)[C@@H](O)[C@H](O)[C@@H]4O)cc3)c3ccc([nH]3)C(c3ccc(NC(=O)C(C)N)cc3)c3ccc([nH]3)C(c3ccc(O[C@@H]4O[C@@H](CO)[C@@H](O)[C@H](O)[C@@H]4O)cc3)c3ccc2[nH]3)cc1 (some centres not stated),MIC,[8],1 µg/mL
same,MBC,[9],1.5 µg/mL
CC(N)C(=O)Nc1ccc(C2c3ccc([nH]3)C(c3ccc(NC(=O)C(C)N)cc3)c3ccc([nH]3)C(c3ccc(O[C@@H]4O[C@@H](CO)[C@@H](O)[C@H](O)[C@@H]4O)cc3)c3ccc([nH]3)C(c3ccc(O[C@@H]4O[C@@H](CO)[C@@H](O)[C@H](O)[C@@H]4O)cc3)c3ccc2[nH]3)cc1 (some centres not stated),MIC,[8],1 µg/mL
same,MBC,[9],1.5 µg/mL
CC(N)C(=O)Nc1ccc(C2c3ccc([nH]3)C(c3ccc(NC(=O)C(C)N)cc3)c3ccc([nH]3)C(c3ccccc3O[C@@H]3O[C@@H](CO)[C@@H](O)[C@H](O)[C@@H]3O)c3ccc([nH]3)C(c3ccc(NC(=O)C(C)N)cc3)c3ccc2[nH]3)cc1 (some centres not stated),MIC,[3],2 µg/mL
same,MBC,[1],> 1.5 µg/mL
CC(N)C(=O)Nc1ccc(C2c3ccc([nH]3)C(c3ccc(NC(=O)C(C)N)cc3)c3ccc([nH]3)C(c3ccc(O[C@@H]4O[C@@H](CO)[C@@H](O)[C@H](O)[C@@H]4O)cc3)c3ccc([nH]3)C(c3ccc(NC(=O)C(C)N)cc3)c3ccc2[nH]3)cc1 (some centres not stated),MIC,[7],1.5 µg/mL
same,MBC,[1],> 1.5 µg/mL
Nc1ccccc1C1c2ccc([nH]2)C(c2ccc(O[C@@H]3O[C@@H](CO)[C@@H](O)[C@H](O)[C@@H]3O)cc2)c2ccc([nH]2)C(c2ccc(O[C@@H]3O[C@@H](CO)[C@@H](O)[C@H](O)[C@@H]3O)cc2)c2ccc([nH]2)C(c2ccc(O[C@@H]3O[C@@H](CO)[C@@H](O)[C@H](O)[C@@H]3O)cc2)c2ccc1[nH]2 (some centres not stated),MIC,[8],1 µg/mL
same,MBC,[1],> 1.5 µg/mL
Nc1ccc(C2c3ccc([nH]3)C(c3ccc(O[C@@H]4O[C@@H](CO)[C@@H](O)[C@H](O)[C@@H]4O)cc3)c3ccc([nH]3)C(c3ccc(O[C@@H]4O[C@@H](CO)[C@@H](O)[C@H](O)[C@@H]4O)cc3)c3ccc([nH]3)C(c3ccc(O[C@@H]4O[C@@H](CO)[C@@H](O)[C@H](O)[C@@H]4O)cc3)c3ccc2[nH]3)cc1 (some centres not stated),MIC,[7],1.5 µg/mL
same,MBC,[9],1.5 µg/mL
Nc1ccc(C2c3ccc([nH]3)C(c3ccc(O[C@@H]4O[C@@H](CO)[C@@H](O)[C@H](O)[C@@H]4O)cc3)c3ccc([nH]3)C(c3ccc(N)cc3)c3ccc([nH]3)C(c3ccc(O[C@@H]4O[C@@H](CO)[C@@H](O)[C@H](O)[C@@H]4O)cc3)c3ccc2[nH]3)cc1 (some centres not stated),MIC,[10],0.5 µg/mL
same,MBC,[9],1.5 µg/mL
Nc1ccc(C2c3ccc([nH]3)C(c3ccc(N)cc3)c3ccc([nH]3)C(c3ccc(O[C@@H]4O[C@@H](CO)[C@@H](O)[C@H](O)[C@@H]4O)cc3)c3ccc([nH]3)C(c3ccc(O[C@@H]4O[C@@H](CO)[C@@H](O)[C@H](O)[C@@H]4O)cc3)c3ccc2[nH]3)cc1 (some centres not stated),MIC,[2],> 3 µg/mL
N=C(N)NCCCC(NC(=O)CCCCOc1ccccc1C1c2ccc([nH]2)C(c2ccc(O[C@@H]3O[C@@H](CO)[C@@H](O)[C@H](O)[C@@H]3O)cc2)c2ccc([nH]2)C(c2ccc(O[C@@H]3O[C@@H](CO)[C@@H](O)[C@H](O)[C@@H]3O)cc2)c2ccc([nH]2)C(c2ccc(O[C@@H]3O[C@@H](CO)[C@@H](O)[C@H](O)[C@@H]3O)cc2)c2ccc1[nH]2)C(=O)NCC(=O)NC(CC(=O)O)C(=O)O (some centres not stated),MIC,[8],1 µg/mL
same,MBC,[9],1.5 µg/mL
N=C(N)NCCCC(NC(=O)CCCOc1ccc(C2c3ccc([nH]3)C(c3ccc(O[C@@H]4O[C@@H](CO)[C@@H](O)[C@H](O)[C@@H]4O)cc3)c3ccc([nH]3)C(c3ccc(O[C@@H]4O[C@@H](CO)[C@@H](O)[C@H](O)[C@@H]4O)cc3)c3ccc([nH]3)C(c3ccc(O[C@@H]4O[C@@H](CO)[C@@H](O)[C@H](O)[C@@H]4O)cc3)c3ccc2[nH]3)cc1)C(=O)NCC(=O)NC(CC(=O)O)C(=O)O (some centres not stated),MIC,[8],1 µg/mL
same,MBC,[9],1.5 µg/mL
Cc1ccc(C2c3ccc([nH]3)C(c3ccc(C)cc3)c3ccc([nH]3)C(c3ccc(OCCCC(=O)NC(CCCN=C(N)N)C(=O)NCC(=O)NC(CC(=O)O)C(=O)O)cc3)c3ccc([nH]3)C(c3ccc(C)cc3)c3ccc2[nH]3)cc1 (configuration not stated),MBC,[1],> 3 µg/mL
same,MIC,[2],> 2.5 µg/mL
Cc1ccc(C2c3ccc([nH]3)C(c3ccc(C)cc3)c3ccc([nH]3)C(c3ccccc3OCCCC(=O)NC(CCCN=C(N)N)C(=O)NCC(=O)NC(CC(=O)O)C(=O)O)c3ccc([nH]3)C(c3ccc(C)cc3)c3ccc2[nH]3)cc1 (configuration not stated),MBC,[1],> 3 µg/mL
same,MIC,[2],> 2.5 µg/mL
Cc1ccc(C2c3ccc([nH]3)C(c3ccc(C)cc3)c3ccc([nH]3)C(c3ccc(N)cc3)c3ccc([nH]3)C(c3ccc(C)cc3)c3ccc2[nH]3)cc1 (configuration not stated),MBC,[1],> 3 µg/mL
same,MIC,[2],> 2.5 µg/mL
Cc1ccc(C2c3ccc([nH]3)C(c3ccc(C)cc3)c3ccc([nH]3)C(c3ccccc3NC(=O)C(N)CO)c3ccc([nH]3)C(c3ccc(C)cc3)c3ccc2[nH]3)cc1 (configuration not stated),MIC,[2],> 3 µg/mL
Cc1ccc(C2c3ccc([nH]3)C(c3ccc(C)cc3)c3ccc([nH]3)C(c3ccc(OCCCC(=O)N(CCCN)CCCCN)cc3)c3ccc([nH]3)C(c3ccc(C)cc3)c3ccc2[nH]3)cc1 (configuration not stated),MIC,[8],1 µg/mL
same,MBC,[9],1.5 µg/mL
C=CC1=C(C)/C2=C/c3[nH]c(c(C)c3C=C)/C=c3\[nH]/c(c(CCC(=O)NCCCCN(CCCN)CCCCNCCCN)c3C)=C\C3=NC(CC1=N2)C(C)=C3CCC(=O)NCCCCN(CCCN)CCCCNCCCN (configuration not stated),MIC,[8],1 µg/mL
same,MBC,[11],2 µg/mL
same,MBC,[12],1.5 µg/mL
Cc1ccc(C2c3ccc([nH]3)C(c3ccc(C)cc3)c3ccc([nH]3)C(c3ccc(OCCCC(=O)N(CCCN)CCCCNCCCN)cc3)c3ccc([nH]3)C(c3ccc(C)cc3)c3ccc2[nH]3)cc1 (configuration not stated),MIC,[7],1.5 µg/mL
same,MBC,[1],> 1.5 µg/mL
Cc1ccc(C2c3ccc([nH]3)C(c3ccc(C)cc3)c3ccc([nH]3)C(c3ccc(NC(=O)C(N)CO)cc3)c3ccc([nH]3)C(c3ccc(C)cc3)c3ccc2[nH]3)cc1 (configuration not stated),MIC,[2],> 3 µg/mL
